Here are results for 3 molecules from patent US11834698B2, “Process for determining enzyme activity in a cell by activity-based reporter gene technology (ABRGT)” (INDIAN INSTITUTE OF SCIENCE EDUCATION AND RESEARCH, priority 2018, dated 2023).

Peptide text beside a SMILES is read from it. * marks the point of attachment. Cbz = O=C(OCc1ccccc1)*; CH2F = FC*

The target in one experiment is T1, caspase-7 GFPspark (Homo sapiens, UniProt P55210).
T1 construct: host or cells: MCF-7, HEK-293
T1 sequence (P55210 24-198 limits assumed): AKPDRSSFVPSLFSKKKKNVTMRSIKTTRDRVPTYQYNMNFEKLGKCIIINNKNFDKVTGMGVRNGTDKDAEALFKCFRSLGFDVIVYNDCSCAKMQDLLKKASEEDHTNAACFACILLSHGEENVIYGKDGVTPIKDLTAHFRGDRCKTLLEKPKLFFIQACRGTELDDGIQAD
T1 sequence (P55210 207-303 limits assumed): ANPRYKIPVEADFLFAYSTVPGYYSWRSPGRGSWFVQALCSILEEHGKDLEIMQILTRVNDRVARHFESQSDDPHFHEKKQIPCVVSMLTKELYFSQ
Briefly: AbRGT FRET imaging / acceptor photobleaching, caspase-7 GFPspark in MCF-7 cells. The format is cell-based. The note with it: for effect of inhibitor on FRET signal / signal in Rh channel in presence of inhibitor: MCF-7, inhibitor 50 μM pre-treatment, STS 6 h, probe 1. How it is done: FIGS. 13A and 13B depict specific detection of caspase-7 GFPspark in MCF-7 cells. […] Cells were fixed and the fluorescence signal was collected in GFP, FRET and Rh channel. […] Bar graph representing the rise in GFP intensity in ROI after rhodamine photobleaching was 89 a.u. as compared to the unbleached background, i.e., 9 a.u. FRET efficiency was calculated to be 32±2%.
(§1) FIG. 15 depicts confocal images of MCF-7 cells in GFP, FRET and Rh channel Caspase-7 GFPspark transfected MCF-7 cells were treated with STS (1 μM) for 6 h and labelled (a) (i) with probe 1 (1 μM) probe. Cells were pre-treated with (a) (ii) Z-VAD-FMK (50 μM) or (a) (iii) Q-VD-OPh (50 μM) pan-caspase inhibitors 1 h before the probe labelling. Caspase-9 GFPspark transfected MCF-7 cells were treated with STS (1 μM) for 4 h and labelled (b) (i) with probe 1 (1 μM) probe. Cells were pre-treated with (b) (ii) Z-VAD-FMK (50 μM) 1 h before probe labelling. Caspase-8 GFPspark overexpressing HEK-293 cells were treated with TRAIL (1 μg/ml) for 5 h and labelled (c) (i) with the probe 1. Cells were pre-treated with (c) (ii) Z-VAD-FMK (50 μM) 1 h before probe labelling.
(§2) Plasmids and transient transfection: GFPspark tagged plasmids; caspase-3 GFPspark tag (Cat: HG10050-ACG), caspase-7 GFPspark tag (HG10049-ACG), caspase-8 GFPspark (HG10078-ACG), caspase-9 GFPspark (HG11151-ACG) and cathepsin B GFPspark (HG10483-ACG) were procured from Sino Biological. For transfection, cells were seeded in a 6-well plate at a density of 0.4 million cells/well. At 60-70% confluency, cells were transiently transfected for 24 h at 37° C. with 1 μg of the GFPspark tagged plasmid DNA construct mixed with 5 μL of Lipofectamine 2000 (Invitrogen) according to the manufacturer's instructions. 24 h post-transfection, cells were visualized under the GFP filter for GFPspark expression under fluorescence microscope at 10× magnification.
Labelling of active caspases in apoptotic cells with FABP: After 24 h of transfection, cells were treated with STS (1 μM) drug or TRAIL (1 μg/ml) for apoptotic induction and incubated for 2, 4, 6 and 8 h at 37° C. in a humidified atmosphere of 5% CO2/95% air. Cells were gently scraped off from the surface at the end of apoptotic induction and centrifuged at 3000 rpm for 5 min. The cell pellet was resuspended in 300 μL of fresh DMEM containing 1 μM of probe for probe 2 and incubated for additional 2 h at 37° C. in a humidified atmosphere of 5% CO2. Cells were again centrifuged at 3000 rpm for 5 mins, and the supernatant was decanted. Cells were washed with 1×PBS, thrice finally resuspended in 20 μL of 1×PBS. The cell suspension was put on a slide, and a coverslip was placed over it. It was left for air drying. Slides were then imaged for GFP, FRET and rhodamine fluorescence signals under confocal microscopy.
Inhibitor assay: Cells were pre-treated with 50 μM of Z-VAD-FMK or Q-VD-OPh or E-64 inhibitor 1 h before probe 1 labelling and incubated for 1 h at 37° C. in a humidified atmosphere of 5% CO2. Cells were gently scraped off from the surface at the end of inhibitor treatment and centrifuged at 3000 rpm for 5 min Cells were then labelled with the probe 1 as described in the previous section.
Fluorescence imaging studies, FRET procedure: Images were collected on Zeiss LSM710 confocal microscope with 25 mW argon laser using Zen10 software. The laser was tuned to lines at 488 nm (excitation laser for GFPspark) and 561 nm (excitation laser for rhodamine) Cells were examined with a 40× 1.3 NA Zeiss oil immersion objective and 2.4× zoom. Images were collected in the three channels; GFP channel, argon laser tuned at 488 nm with 2% laser intensity and fluorescence emission was collected in emission range of 490-550 nm; rhodamine channel, argon laser tuned to 561 nm laser with 2% laser intensity and fluorescence emission was collected in range 550-650 nm and FRET channel with excitation laser of GFPSPARK channel and emission range of rhodamine channel. […]

The next experiment addresses T2, caspase-9 GFPspark (Homo sapiens, UniProt P55211).
T2 construct: host or cells: MCF-7, HEK-293
T2 sequence (P55211 1-416): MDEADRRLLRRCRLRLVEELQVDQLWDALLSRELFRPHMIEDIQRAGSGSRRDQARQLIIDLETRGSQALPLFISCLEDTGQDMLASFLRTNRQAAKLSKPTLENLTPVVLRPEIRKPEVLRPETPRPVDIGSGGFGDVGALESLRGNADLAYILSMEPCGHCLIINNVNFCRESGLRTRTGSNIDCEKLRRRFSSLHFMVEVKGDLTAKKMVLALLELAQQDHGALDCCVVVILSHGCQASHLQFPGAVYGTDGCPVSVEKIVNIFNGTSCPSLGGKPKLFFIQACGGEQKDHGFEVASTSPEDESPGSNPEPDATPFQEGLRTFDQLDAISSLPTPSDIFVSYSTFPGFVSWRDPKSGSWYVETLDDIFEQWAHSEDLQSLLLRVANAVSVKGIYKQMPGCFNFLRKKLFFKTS
Briefly: AbRGT FRET imaging / acceptor photobleaching, caspase-9 GFPspark in MCF-7 cells. Format: cell-based. How it is done: as §1
FIG. 16 depicts specific detection of caspase-9 GFPspark in MCF-7 cells. Casp-9 GFPspark (1 μg) transfected MCF-7 cells were treated with STS (1 μM) for 4 h and labelled with the probe 1 (1 μM). Cells were fixed and the fluorescence signal was collected in GFP, FRET and Rh channels. The acceptor photobleaching experiment was carried out to confirm the FRET signal as described previously. Bar graph representing a rise in GFP intensity in ROI after rhodamine photobleaching was 63 a.u. as compared to the unbleached background, i.e., 8 a.u. FRET efficiency was calculated to be 30±1%.
as §2
Labelling of active caspases in apoptotic cells with FABP: After 24 h of transfection, cells were treated with STS (1 μM) drug or TRAIL (1 μg/ml) for apoptotic induction and incubated for 2, 4, 6 and 8 h at 37° C. in a humidified atmosphere of 5% CO2/95% air. Cells were gently scraped off from the surface at the end of apoptotic induction and centrifuged at 3000 rpm for 5 min. […] Slides were then imaged for GFP, FRET and rhodamine fluorescence signals under confocal microscopy. […]
Fluorescence imaging studies, FRET procedure: Images were collected on Zeiss LSM710 confocal microscope with 25 mW argon laser using Zen10 software. […]

Setting [1] is: MCF-7, inhibitor 50 μM, STS 4 h.
Setting [2] is: MCF-7, STS 1 μM 4 h, probe 1 μM.

Consider `CC(C)[C@H](NC(=O)c1ccc2ccccc2n1)C(=O)N[C@@H](CC(=O)O)C(=O)COc1c(F)cccc1F` [Q-VD-OPh], for which, on caspase-7 GFPspark, the “effect of inhibitor on FRET signal” value is “abolished” and the “signal in Rh channel in presence of inhibitor” value is reported as “significant punctate labelling”.
Regarding `COC(=O)C[C@H](NC(=O)[C@H](C)NC(=O)[C@@H](NC(=O)OCc1ccccc1)C(C)C)C(=O)CF` [Z-VAD-FMK] (Cbz-Val-Ala-Asp(OMe)-CH2F), on caspase-7 GFPspark, the “effect of inhibitor on FRET signal” value was “completely abolished” and the “signal in Rh channel in presence of inhibitor” value is listed as “completely abolished”. In addition, at caspase-9 GFPspark (setting [1]), the “effect of inhibitor on signal in FRET channel” value is listed as “completely abolished” and the “effect of inhibitor on signal in Rh channel” value was “completely abolished”.
As for “Rhodamine-VAD-fluoromethyl ketone [probe 1]”, the “rise in GFP intensity in ROI after rhodamine photobleaching” value was determined as 89 a.u at caspase-7 GFPspark (MCF-7, STS 1 μM 5 h, probe 1 μM) and 63 a.u on caspase-9 GFPspark (setting [2]). Besides, the “calculated FRET efficiency” value on caspase-7 GFPspark (MCF-7, STS 1 μM 5 h or 6 h, probe 1 μM) is reported as 32±2%; on caspase-9 GFPspark (setting [2]) it was 30±1%.
